Type in all cases: biochemical
In assay [1] the target is T1, Lactoperoxidase (LPO) (Bos taurus, UniProt P80025).
T1 construct: native enzyme from bovine milk, commercial lyophilisate (Sigma-Aldrich), heme-containing, mature secreted form
As to the kind of experiment: Ellman's reagent assay of OSCN- formation, […] nm. Background: DTNB colorimetry detects thiols as they appear.

Assay [2] deals with T1, Lactoperoxidase (LPO). As to the kind of experiment: Ellman's reagent assay of OSCN- formation, […] nm. This is another data set of the same source.
Assay [3] concerns the target T1, Lactoperoxidase (LPO). As to the kind of experiment: stopped-flow spectrophotometry, reduction of LPO Compound II to native LPO. The conditions noted are these: 1 µM LPO, 0.75 µM H2O2, 20 mM phosphate pH 6, 15 °C; one-electron donor in peroxidation cycle.

We go through 3 compounds from article PMC8146912, “Phenolic Compounds of Reynoutria sp. as Modulators of Oral Cavity Lactoperoxidase System” (Antioxidants, 2021).

`Oc1ccc(/C=C/c2cc(O)cc(O)c2)cc1` [b, Resveratrol]: the EC50 on Lactoperoxidase (LPO) [1] is 9 ± 2 nM. Besides, the concentration for half-maximal inhibition (IC50) at Lactoperoxidase (LPO) [2] stood at 423 ± 18 nM. On to `Cc1cc(O)c2c(c1)C(=O)c1cc(O)cc(O)c1C2=O` [c, Emodin], for which the “k (Compound II -> Native LPO)” value at Lactoperoxidase (LPO) [3] is “this compound may be a substrate for LPO Compound I and Compound II”. Consider `Oc1cc(O)c2c(c1)O[C@H](c1ccc(O)c(O)c1)[C@H](O)C2` [a, (-)-Epicatechin], for which, at Lactoperoxidase (LPO) [1], the half-maximal effective concentration (EC50) came out at 1310 ± 239 nM. Further, on Lactoperoxidase (LPO) [2], 74100 ± 3620 nM corresponded to half-maximal inhibition (IC50).

In general, EC50 refers to the concentration giving half of the maximal effect. A lower EC50 goes with a more potent agent. A word on the IC50: it is the concentration at which inhibition is half-maximal. A high value points to a need for much substance.
